Data as given in patent US8324264B1, “Inhibitors of bacterial biofilms and related methods” (Sequoia Sciences, Inc., priority 2011, dated 2012).
Values after ≈ are worked out from the molar mass of the structure shown. Read-outs that look alike come from different tables or passages of the source.

Tests used:
P. aeruginosa biofilms = test: Biofilm growth assay (spreading biofilm on semi-solid agar), P. aeruginosa; assay type: cell-based; conditions: for IC85: Pseudomonas aeruginosa, read-out: P. aeruginosa: concentration that reduces the area of the spreading biofilm by greater than or equal to 85%
Source text: (§1) “Biofilm Growth Assay” refers to an assay performed on semi-solid agar surface where the bacteria collectively move out from an inoculation point. To those skilled in the art, the act of bacteria collectively moving out from an inoculation point on a semi-solid surface may be referred to as swarming or a spreading biofilm. (Anderson, et al Microbiology, 2003, 149, 37-46; Daniels, et al. FEMS Microbiology Reviews, 2004, 28, 261-289). The procedure to perform this assay is described in detail in the Examples. This type of surface motility by bacteria has been reported in the literature by those skilled in the art. […] These references are incorporated herein by reference in their entirety.
(§2) The biofilm growth assay was carried out to measure swarming or biofilm spreading on semi-solid agar media in round plates (for example, 100×15 mm), also referred to as Petri dishes. For E. coli, the plates contained LB medium with 0.6% agar and 0.5% glucose. P. aeruginosa plates were made with M8 agar supplemented with 0.2% glucose, 100 μM CaCl2, 1 mM MgSO4, and 0.5% Casamino acids. The agar plates of this assay consisted of 0.4% to 0.7% agar (Bacto or Noble agar), although other media may also be used as described in the literature and known to those skilled in the art. Test compounds at the desired concentration were added to the cooled, autoclaved media. Portions of the media were then poured into the plates (20 mL/plate), and the plates allowed to dry at room temperature for approximately 3 to 4 hours. Alternatively, however, plates may be dried in a laminar flow hood for approximately fifteen to twenty minutes. Overnight cultures were grown in a 37° C. shaker in LB (E. coli) or TSB (P. aeruginosa). Plates were inoculated by placing 5 μL of the appropriate overnight culture in the centers of the plates. The plates then were incubated overnight at 37° C. The area of the zone of spreading bacteria was then measured and replicates are averaged. Percent inhibition was calculated as 100×(area without compound−area with compound)/(area without compound). An active compound was considered that which reduces the area of the spreading biofilm compared to negative controls by greater than or equal to 85%. The values shown in Table 1 are the concentrations of compounds (μg/ml) tested in the biofilm growth assay that reduce the area of the spreading biofilm compared to negative controls by greater than or equal to 85% unless noted differently in Table 1. A > (“greater than” symbol) as used in Table 1 is well understood to those skilled in the art as an indication that the listed concentration was not effective at this concentration.
(§3) All of the compounds shown in Tables 2, 3, 4, and 5, below, were prepared semi-synthetically from oleanolic acid, except for Compounds 2 and 3. Compound 2 was prepared from ursolic acid. Compound 3 was prepared from hederagenin, but could also be prepared from an oleanolic acid analog with a hydroxyl at C23 or C24. These compounds were tested in the spreading biofilm assay according to the methods detailed in Example I, above. The values shown in Tables 2, 3, 4, and 5 are the concentrations of compounds tested in the biofilm growth assay that reduce the area of the spreading biofilm compared to negative controls by greater than or equal to 85%.

E. coli biofilms = test: Biofilm growth assay (spreading biofilm on semi-solid agar), E. coli; assay type: cell-based; conditions: biofilm growth assay, overnight 37° C., vs negative controls, Tables 1-5; for IC85: Escherichia coli, read-out: E. coli: concentration that reduces the area of the spreading biofilm by greater than or equal to 85%
Source text: as §1, §2, §3

[1] = biofilm growth assay, overnight 37° C., vs negative controls, Tables 1-5

Structure (SMILES)	P. aeruginosa: concentration that reduces the area of the spreading biofilm by greater than or equal to 85% (P. aeruginosa biofilms; [1]) [µg/mL]	E. coli: concentration that reduces the area of the spreading biofilm by greater than or equal to 85% (E. coli biofilms) [µg/mL]	IC85 (P. aeruginosa biofilms; [1]) [µg/mL]	IC85 (E. coli biofilms) [µg/mL]	IC85 (P. aeruginosa biofilms) [µg/mL]
CC1(C)CC[C@]2(C(=O)O)CC[C@]3(C)C(=C(c4ccc(N5CCC(N)C5)nc4)CC4[C@@]5(C)Cc6c(n[nH]c6N)C(C)(C)C5CC[C@]43C)C2C1 (stereo partly drawn) [Example 58, (4a-8,6a8,6bR,13aR)-12-Amino-15-(6-(3-aminopyrrolidin-1-yl)pyridin-3-yl)-2,2,6a,6b,9,9,13a-heptamethyl-2,3,4,4a,5,6,6a,6b,7,8,8a,9,11,13,13a,13b,14,15b-octadecahydro-1H-chryseno[1,2-f]indazole-4-a-carboxylic acid]	1	2	–	–	–
CC1(C)CC[C@]2(c3nnc(S)[nH]3)CC[C@]3(C)C(=CCC4[C@@]5(C)Cc6c(n[nH]c6N)C(C)(C)C5CC[C@]43C)C2C1 (stereo partly drawn) [Compound 75, 5-((4aS,6aS,6bR,13aR)-12-Amino-2,2,6a,6b,9,9,13a-heptamethyl-2,3,4,4a,5,6,6a,6b,7,8,8a,9,11,13,13a,13b,14,15b-octadecahydro-1H-chryseno[1,2-f]indazol-4-a-yl)-4H-1,2,4-triazole-3-thiol]	0.5	1	–	–	–
CC1(C)CC[C@]2(C(=O)O)CC[C@]3(C)C(=C(c4ccccc4CN4CCOCC4)CC4[C@@]5(C)Cc6c(n[nH]c6N)C(C)(C)[C@@H]5CC[C@]43C)[C@@H]2C1 (stereo partly drawn) [Example 59, (4aS,6aS,6bR,8aR,13aR,15bS)-12-Amino-2,2,6a,6b,9,9,13a-heptamethyl-15-(2-(morpholinomethyl)phenyl)-2,3,4,4a,5,6,6a,6b,7,8,8a,9,11,13,13a,13b,14,15b-octadecahydro-1H-chryseno[1,2-f]indazole-4-a-carboxylic acid]	0.5	>1	–	–	–
CC1(C)CC[C@]2(C(=O)O)CC[C@]3(C)[C@H](C(=O)C=C4[C@@]5(C)C=C(C#N)C(=O)C(C)(C)[C@@H]5CC[C@]43C)[C@@H]2C1 [L]	–	–	> 16	> 16	–
CC1(C)CC[C@]2(C(=O)Sc3nnc(N)[nH]3)CC[C@]3(C)C(=CCC4[C@@]5(C)Cc6c(n[nH]c6N)C(C)(C)C5CC[C@]43C)C2C1 (stereo partly drawn) [Compound 70, (4aS,6aS,6bR,13aR)—S-5-Amino-4H-1,2,4-triazol-3-yl12-amino-2,2,6a,6b,9,9,13a-heptamethyl-2,3,4,4a,5,6,6a,6b,7,8,8a,9,11,13,13a,13b,14,15b-octadecahydro-1H-chryseno[1,2-f]indazole-4-a-carbothioate]	–	–	0.5 (≈ 0.845 µM)	2 (≈ 3.38 µM)	–
CC1(C)CC[C@]2(C(=O)O)CC[C@]3(C)C(=C(CO)CC4[C@@]5(C)Cc6c(n[nH]c6N)C(C)(C)[C@@H]5CC[C@]43C)[C@@H]2C1 (stereo partly drawn) [N]	–	–	8 (≈ 15.3 µM)	8 (≈ 15.3 µM)	–
CC1(C)CC[C@]2(C(=O)O)CC[C@]3(C)C(=C(c4ccc(N5CCNCC5)nc4)CC4[C@@]5(C)Cc6c(n[nH]c6N)C(C)(C)C5CC[C@]43C)C2C1 (stereo partly drawn) [Example 55, (4aS,6aS,6bR,13aR)-12-Amino-2,2,6a,6b,9,9,13a-heptamethyl-15-(6-(piperazin-1-yl)pyridin-3-yl)-2,3,4,4a,5,6,6a,6b,7,8,8a,9,11,13,13a,13b,14,15b-octadecahydro-1H-chryseno[1,2-f]indazole-4-a-carboxylic acid]	>1	2	–	–	–
CN(C)c1[nH]nc2c1C[C@@]1(C)C(CC[C@]3(C)C1CC=C1C4CC(C)(C)CC[C@]4(C(=O)O)CC[C@]13C)C2(C)C (stereo partly drawn) [J]	–	–	> 16	> 16	–
CC1(C)CC[C@]2(C(=O)O)CC[C@]3(C)C(=CCC4[C@@]5(C)Cc6c[nH]nc6C(C)(C)C5CC[C@]43C)C2C1 (stereo partly drawn) [D]	–	–	1 (≈ 2.09 µM)	4 (≈ 8.36 µM)	–
CC1(C)CC[C@]2(C(=O)O)CC[C@]3(C)C(=C(c4ccoc4CN4CCNCC4)CC4[C@@]5(C)Cc6c(n[nH]c6N)C(C)(C)[C@@H]5CC[C@]43C)[C@@H]2C1 (stereo partly drawn) [Example 35, (4aS,6aS,6bR,8aR,13aR,15bS)-12-Amino-2,2,6a,6b,9,9,13a-heptamethyl-15-(2-(piperazin-1-ylmethyl)furan-3-yl)-2,3,4,4a,5,6,6a,6b,7,8,8a,9,11,13,13a,13b,14,15b-octadecahydro-1H-chryseno[1,2-f]indazole-4-a-carboxylic acid]	>1	1	–	–	–
CNc1[nH]nc2c1C[C@@]1(C)C(CC[C@]3(C)C1CC=C1C4CC(C)(C)CC[C@]4(C(=O)O)CC[C@]13C)C2(C)C (stereo partly drawn) [I]	–	–	> 16	8 (≈ 15.8 µM)	–
Cn1cc(C2=C3[C@@H]4CC(C)(C)CC[C@]4(C(=O)O)CC[C@@]3(C)[C@]3(C)CC[C@H]4C(C)(C)c5n[nH]c(N)c5C[C@]4(C)C3C2)cn1 (stereo partly drawn) [Example 28, (4aS,6aS,6bR,8aR,13aR,15bS)-12-Amino-2,2,6a,6b,9,9,13a-heptamethyl-15-(1-methyl-1H-pyrazol-4-yl)-2,3,4,4a,5,6,6a,6b,7,8,8a,9,11,13,13a,13b,14,15b-octadecahydro-1H-chryseno[1,2-f]indazole-4-a-carboxylic acid]	1	2	–	–	–
CC1(C)CC[C@]2(C(=O)O)CC[C@]3(C)C(=C(Cl)CC4[C@@]5(C)Cc6c(n[nH]c6N)C(C)(C)C5CC[C@]43C)C2C1 (stereo partly drawn) [Example 24, (4aS,6aS,6bR,13aR)-12-Amino-15-chloro-2,2,6a,6b,9,9,13a-heptamethyl-2,3,4,4a,5,6,6a,6b,7,8,8a,9,11,13,13a,13b,14,15b-octadecahydro-1H-chryseno[1,2-f]indazole-4-a-carboxylic acid]	–	–	0.5 (≈ 0.947 µM)	1 (≈ 1.89 µM)	–
CC1(C)CC[C@]2(C(=O)Nc3nnc(S)s3)CC[C@]3(C)C(=CCC4[C@@]5(C)Cc6c(n[nH]c6N)C(C)(C)C5CC[C@]43C)C2C1 (stereo partly drawn) [Compound 74, (4aS,6aS,6bR,13aR)-12-Amino-N-(5-mercapto-1,3,4-thiadiazol-2-yl)-2,2,6a,6b,9,9,13a-heptamethyl-2,3,4,4a,5,6,6a,6b,7,8,8a,9,11,13,13a,13b,14,15b-octadecahydro-1H-chryseno[1,2-f]indazole-4-a-carboxamide]	–	–	1 (≈ 1.64 µM)	> 2	–
CC1(C)CC[C@]2(C(=O)O)CC[C@]3(C)C(=C(c4c[nH]cc4CN4CCOCC4)CC4[C@@]5(C)Cc6c(n[nH]c6N)C(C)(C)[C@@H]5CC[C@]43C)[C@@H]2C1 (stereo partly drawn) [Example 33, (4aS,6aS,6bR,8aR,13aR,15bS)-12-Amino-2,2,6a,6b,9,9,13a-heptamethyl-15-(4-(morpholinomethyl)-1H-pyrrol-3-yl)-2,3,4,4a,5,6,6a,6b,7,8,8a,9,11,13,13a,13b,14,15b-octadecahydro-1H-chryseno[1,2-f]indazole-4-a-carboxylic acid]	2	4	–	–	–
C[C@H]1[C@H](C)CC[C@]2(C(=O)O)CC[C@]3(C)C(=CC[C@@H]4[C@@]5(C)C[C@@H](O)[C@H](O)C(C)(C)[C@@H]5CC[C@]43C)[C@H]12 [Corosolic acid, reference compound]	–	–	4 (≈ 8.46 µM)	–	–
CC1(C)CC[C@]2(C(=O)O)CC[C@]3(C)C(=CC[C@@H]4[C@@]5(C)C[C@@H](O)[C@H](O)C(C)(C)[C@@H]5CC[C@]43C)[C@@H]2C1 [Maslinic acid, reference compound]	–	–	–	–	4 (≈ 8.46 µM)
C[C@@H]1CC[C@]2(C)CC[C@]3(C)C(=CCC4[C@@]5(C)CC[C@H](O)C(C)(C)C5CC[C@]43C)C2[C@H]1C (stereo partly drawn) [alpha-Amyrin, reference compound]	–	–	> 32	–	–
